Laboratory results: patent US20230123334A1, “AMINO LIPID COMPOUND, PREPARATION METHOD THEREFOR, AND APPLICATION THEREOF” (SHENZHEN SHENXIN BIOTECHNOLOGY CO., LTD., priority 2020, published 2023)

Assays:
HEK293 cells [1] = assay: Preliminary screening as mRNA vectors, EGFP mRNA transfection of HEK293 cells; type: cell-based; conditions: HEK293 cells, 96-well plates, EGFP mRNA 50 ng per well; percentage of GFP fluorescent cells relative to total number of cells (Hoechst)
In short: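 Each well of HEK293 cells received 50 ng of EGFP mRNA. Efficiency was expressed as percent GFP-expressing cells over Hoechst-defined total cell number.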

HEK293 cells [2] = assay: Preliminary screening as DNA vectors, GFP transfection of HEK293 cells; type: cell-based; conditions: HEK293 cells; lipid/DOPE liposome with 75 ng plasmid DNA (psin-EGFP-IRES-Puro); number of cells expressing GFP divided by total number of nuclei (Hoechst)
In short: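 Lipid + DOPE liposomes (NaOAc, pH 5.6) complexed w/ 75 ng psin-EGFP-IRES-Puro, 30 min RT; added to 3-5×10^4 HEK293/well, 37° C. Hoechst 0.2 μg/mL at 20-24 h, imaged after further 20-24 h. Efficiency = GFP+ cells / total nuclei.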

Compound | Absolute mRNA transfection efficiency in HEK293 cells (HEK293 cells [1]) [%] | Absolute DNA transfection efficiency in HEK293 cells (HEK293 cells [2]) [%]
CCCCCCCCCCCCCNc1nc(NCCCCCCCC)nc(NCCCN2CCN(C)CC2)n1 [Compound N8N13D9] | 0.0 | 1.0
CCCCCCCCCCCCCNc1nc(NCCCCCCCC)nc(NCC2CCN(C)CC2)n1 [Compound N8N13D10] | 1.9 | 2.1
CCCCCCCCCCCCCCCNc1nc(NCCCCCCCC)nc(NCCN(C)C)n1 [Compound N8N15D1] | 0.7 | 1.5
CCCCCCCCCCCCCCCNc1nc(NCCCCCCCC)nc(NCCN2CCOCC2)n1 [Compound N8N15D2] | 0.0 | 0.0
CCCCCCCCCCCCCCCNc1nc(NCCCCCCCC)nc(NCCN2CCCC2)n1 [Compound N8N15D3] | 7.6 | 1.5
CCCCCCCCCCCCCCCNc1nc(NCCCCCCCC)nc(NCCN2CCCCC2)n1 [Compound N8N15D4] | 0.0 | 0.5
CCCCCCCCCCCCCCCNc1nc(NCCCCCCCC)nc(NCCN2CCN(C)CC2)n1 [Compound N8N15D5] | 0.2 | 0.6
CCCCCCCCCCCCCCCNc1nc(NCCCCCCCC)nc(NCCCN(C)C)n1 [Compound N8N15D6] | 0.0 | 1.3
CCCCCCCCCCCCCCCNc1nc(NCCCCCCCC)nc(NCCN(CC)CC)n1 [Compound N8N15D7] | 0.0 | 0.0
CCCCCCCCCCCCCCCNc1nc(NCCCCCCCC)nc(NCCCN2CCOCC2)n1 [Compound N8N15D8] | 0.3 | 1.1
CCCCCCCCCCCCCCCNc1nc(NCCCCCCCC)nc(NCCCN2CCN(C)CC2)n1 [Compound N8N15D9] | 0.1 | 0.0
CCCCCCCCCCCCCCCNc1nc(NCCCCCCCC)nc(NCC2CCN(C)CC2)n1 [Compound N8N15D10] | 3.3 | 3.2
CCCCCCCCCCCCCCCCNc1nc(NCCCCCCCC)nc(NCCN(C)C)n1 [Compound N8N16D1] | 4.6 | 3.8
CCCCCCCCCCCCCCCCNc1nc(NCCCCCCCC)nc(NCCN2CCOCC2)n1 [Compound N8N16D2] | 0.2 | 0.8
CCCCCCCCCCCCCCCCNc1nc(NCCCCCCCC)nc(NCCN2CCCC2)n1 [Compound N8N16D3] | 13.8 | 8.5
CCCCCCCCCCCCCCCCNc1nc(NCCCCCCCC)nc(NCCN2CCCCC2)n1 [Compound N8N16D4] | 2.3 | 5.3
CCCCCCCCCCCCCCCCNc1nc(NCCCCCCCC)nc(NCCN2CCN(C)CC2)n1 [Compound N8N16D5] | 0.3 | 0.2
CCCCCCCCCCCCCCCCNc1nc(NCCCCCCCC)nc(NCCCN(C)C)n1 [Compound N8N16D6] | 1.5 | 2.4
CCCCCCCCCCCCCCCCNc1nc(NCCCCCCCC)nc(NCCN(CC)CC)n1 [Compound N8N16D7] | 0.3 | 3.1
CCCCCCCCCCCCCCCCNc1nc(NCCCCCCCC)nc(NCCCN2CCOCC2)n1 [Compound N8N16D8] | 0.2 | 2.3
CCCCCCCCCCCCCCCCNc1nc(NCCCCCCCC)nc(NCCCN2CCN(C)CC2)n1 [Compound N8N16D9] | 0.5 | 1.0
CCCCCCCCCCCCCCCCNc1nc(NCCCCCCCC)nc(NCC2CCN(C)CC2)n1 [Compound N8N16D10] | 1.5 | 3.4

Compound | Absolute mRNA transfection efficiency in HEK293 cells (HEK293 cells [1]) [%] | Absolute DNA transfection efficiency in HEK293 cells (HEK293 cells [2]) [%]
CCCCCCCCCCCCCCCCCCNc1nc(NCCCCCCCC)nc(NCCN(C)C)n1 [Compound N8N18D1] | 6.4 | 1.8
CCCCCCCCCCCCCCCCCCNc1nc(NCCCCCCCC)nc(NCCN2CCOCC2)n1 [Compound N8N18D2] | 7.0 | 1.7
CCCCCCCCCCCCCCCCCCNc1nc(NCCCCCCCC)nc(NCCN2CCCC2)n1 [Compound N8N18D3] | 39.9 | 9.8
CCCCCCCCCCCCCCCCCCNc1nc(NCCCCCCCC)nc(NCCN2CCCCC2)n1 [Compound N8N18D4] | 29.2 | 8.2
CCCCCCCCCCCCCCCCCCNc1nc(NCCCCCCCC)nc(NCCN2CCN(C)CC2)n1 [Compound N8N18D5] | 0.9 | 1.9
CCCCCCCCCCCCCCCCCCNc1nc(NCCCCCCCC)nc(NCCCN(C)C)n1 [Compound N8N18D6] | 4.1 | 2.2
CCCCCCCCCCCCCCCCCCNc1nc(NCCCCCCCC)nc(NCCN(CC)CC)n1 [Compound N8N18D7] | 9.3 | 2.7
CCCCCCCCCCCCCCCCCCNc1nc(NCCCCCCCC)nc(NCCCN2CCOCC2)n1 [Compound N8N18D8] | 2.8 | 1.3
CCCCCCCCCCCCCCCCCCNc1nc(NCCCCCCCC)nc(NCCCN2CCN(C)CC2)n1 [Compound N8N18D9] | 0.0 | 1.2
CCCCCCCCCCCCCCCCCCNc1nc(NCCCCCCCC)nc(NCC2CCN(C)CC2)n1 [Compound N8N18D10] | 5.0 | 1.4
CCCCCCCCCNc1nc(NCCCCCCCCC)nc(NCCN(C)C)n1 [Compound N9N9D1] | 0.5 | 0.2
CCCCCCCCCNc1nc(NCCCCCCCCC)nc(NCCN2CCOCC2)n1 [Compound N9N9D2] | 0.1 | 0.0
CCCCCCCCCNc1nc(NCCCCCCCCC)nc(NCCN2CCCC2)n1 [Compound N9N9D3] | 0.2 | 0.3
CCCCCCCCCNc1nc(NCCCCCCCCC)nc(NCCN2CCCCC2)n1 [Compound N9N9D4] | 0.6 | 0.0
CCCCCCCCCNc1nc(NCCCCCCCCC)nc(NCCN2CCN(C)CC2)n1 [Compound N9N9D5] | 0.1 | 0.0
CCCCCCCCCNc1nc(NCCCCCCCCC)nc(NCCCN(C)C)n1 [Compound N9N9D6] | 0.4 | 0.2
CCCCCCCCCNc1nc(NCCCCCCCCC)nc(NCCN(CC)CC)n1 [Compound N9N9D7] | 0.3 | 0.0
CCCCCCCCCNc1nc(NCCCCCCCCC)nc(NCCCN2CCOCC2)n1 [Compound N9N9D8] | 0.6 | 0.0
CCCCCCCCCNc1nc(NCCCCCCCCC)nc(NCCCN2CCN(C)CC2)n1 [Compound N9N9D9] | 0.2 | 0.0
CCCCCCCCCNc1nc(NCCCCCCCCC)nc(NCC2CCN(C)CC2)n1 [Compound N9N9D10] | 0.8 | 0.0
CCCCCCCCCCCNc1nc(NCCCCCCCCC)nc(NCCN(C)C)n1 [Compound N9N11D1] | 2.2 | 0.0
